Measured values published in patent US9821173B2, “Anti-cancer agents and methods of use” (Case Western Reserve University, priority 2013, dated 2017).

Assays:
[1] = test system: HeLa cells; details: HeLa, data not shown
Protocol: HeLa cells were plated at a density of 250,000-300,000 cells/mL. After 24 hr cells, the cells were irradiated in a dose dependent manner (0-4 Gy) using a ^137Cs gamma source. After treatment, the cells were trypsinized and plated at a density between 300-4000 cells in 60 mm dishes. Cells were allowed to grow colonies (1 colony≧50 cells) for 10-14 days, stained with 0.25% crystal violet, and manually counted to measure the number of colonies. Survival fractions were normalized against positive controls (colony formation with no radiation) and plotted as the log percent survival versus dose of radiation. Each experiment was performed an average of four (4) times with cells propagated on several different days.
In this case, we measured the effects of combining these (phosphine)gold(I) indoles with ionizing radiation (IR), a widely used therapy used to treat solid tumors. […] After this time frame, media containing the (phosphine)gold(I) indole was removed and replaced with fresh media. The cells were then irradiated in a dose-dependent fashion from 0 to 6 Gy. Cell viability was assessed using a clonogenic assay that measures colony formation and thus accurately defines the cytotoxic effects of IR exposure. […] The initial linear phase is particularly important as this reflects repair of non-lethal damage inflicted by clinically-relevant doses of IR (˜2 Gy).

[2] = test system: HCT-116; assay: Cell proliferation assay (cell-titer blue); format: cell-based; details: cell viability, up to 48 hours, read-out: IC50 HCT116
Protocol: (§1) HeLa, MCF-7, HCT-116, and CEM-C7 were obtained from the American Type Culture Collection (Manassas, Va., USA). All adherent cell lines were maintained in Dulbecco's modified Eagle's medium (Mediatech) with 100 U/ml penicillin (Invitrogen), 100 μg/ml streptomycin (Invitrogen), 0.25 μg/ml amphotericin B (Invitrogen), and 10% fetal bovine serum (USA Scientific) and incubated at 37° C. with 5% CO2. CEM cells were maintained in RPMI-1640 media supplemented with 100 U/ml penicillin, 100 μg/ml streptomycin, 0.25 μg/ml amphotericin B, and 10% fetal bovine serum and incubated at 37° C. with […].
(§2) Cells were plated at a density of 7,000-13,000/well in 200 μl of media overnight in a 96-well plate. Each (phosphine)gold(I)-indole was added to wells in a dose-dependent manner (0.01-100 μM). Cells were treated with compounds for variable time periods (8-48 hours). With adherent cell lines, medium was removed from the wells and then 100 μl of fresh medium was added into each well followed by the addition of 20 μl of cell titer-blue reagent (Promega). Cells were incubated with reagent for 1-4 hrs and the optical density of samples was read at 560 nm using a microplate reader. The background absorbance of dye with media was subtracted from each sample. Cell viability was then normalized against cells treated with DMSO. IC50 values were obtained using a fit of the data to Equation 1: Y=100%/[1+(IC50/Inhibitor)] (1)
(§3) where y is the fraction of viable cells, IC50 is the concentration of inhibitor that inhibits 50% cell growth, and Inhibitor is the concentration of compound tested.
(§4) The cellular effects of these (phosphine)gold(I) indoles were tested against several cancer cell lines including HeLa (cervical cancer), MCF-7 (breast cancer), HCT-116 (colon cancer), and CEM-C7 (leukemia). The dose-dependency of each modified indole on cell viability was assessed using a cell-titer blue assay as previously described. In these experiments, cells were exposed to variable concentrations of each (phosphine)gold(I) indole (0.01-100 μM) for up to 48 hours and then assessed for viability.

[3] = test system: MCF-7; assay: Cell proliferation assay (cell-titer blue); format: cell-based; details: cell viability, up to 48 hours
Protocol: as §1, §2, §3, §4

[4] = test system: HeLa; assay: Cell proliferation assay (cell-titer blue); format: cell-based; details: for IC50: cell viability, cell-titer blue, up to 48 hours
Protocol: as §1, §2, §3, §4

[5] = test system: CEM-C7; assay: Cell proliferation / cytotoxicity assay; format: cell-based; details: for IC50: cell viability, cell-titer blue, up to 48 hours
Protocol: as §1, §2, §3, §4
Defining this mechanism of cell death is important as necrosis can cause various side-effects including septic shock and kidney failure that can obviously compromise patient health.

[6] = biological target: BSA (Bos taurus, UniProt P02769); assay: Reactivity of Au(I)-compounds with BSA thiol (DTNB -SH titer); design: species or system bovine; details: 120 μM compound, Au(I)/BSA ratios up to 4:1, one hour, 37° C., PBS
Chain of BSA (P02769 25-607): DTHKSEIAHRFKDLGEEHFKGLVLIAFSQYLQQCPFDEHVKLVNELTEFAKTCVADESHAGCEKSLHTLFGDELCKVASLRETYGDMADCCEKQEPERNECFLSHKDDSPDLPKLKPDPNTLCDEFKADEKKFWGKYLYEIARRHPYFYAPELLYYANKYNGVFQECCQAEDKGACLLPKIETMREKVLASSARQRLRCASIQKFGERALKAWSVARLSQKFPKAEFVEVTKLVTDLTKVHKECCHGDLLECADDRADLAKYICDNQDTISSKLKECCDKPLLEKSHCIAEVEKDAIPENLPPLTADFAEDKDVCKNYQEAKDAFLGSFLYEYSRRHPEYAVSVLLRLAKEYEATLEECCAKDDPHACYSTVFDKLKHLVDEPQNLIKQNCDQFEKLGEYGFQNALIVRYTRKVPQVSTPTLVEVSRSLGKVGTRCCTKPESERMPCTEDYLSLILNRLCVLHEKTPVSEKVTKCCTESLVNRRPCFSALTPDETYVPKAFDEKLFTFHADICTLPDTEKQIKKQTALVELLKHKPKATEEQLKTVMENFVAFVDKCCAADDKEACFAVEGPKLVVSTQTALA
Protocol: PBS was used as the reaction buffer.
We tested the ability of various Au(I)-complexes to non-selectively react with BSA. […] P2 resin was effective in retaining Au(I)-containing compounds including compound 3 and compound 4. However, BSA was not retained in the resin as >95% of the BSA loaded into the Penefsky column is recovered in the eluant. […] Values obtained from reactions containing BSA incubated with the various Au(I) complexes were compared to identical reactions containing BSA alone and eluted through Penefsky columns.

`Cn1ccc2c[c]([Au-][P+](c3ccccc3-c3ccccc3)(C3CCCCC3)C3CCCCC3)ccc21` [Compound 7, 5-{[1,1′-biphenyl]-2-yldicyclohexylphosphine aurate(I)}-1-methyl-1H-indole] was tested, and the “enhancement of the cell killing effects of IR” value [1] was “do not enhance the cell killing effects of IR”, the IC50 [2] was 380 nM and the IC50 [3] was 3250 nM. It also gave an IC50 [4] of 460 nM and an IC50 [5] of 1430 nM.

For `CC(C)(C)C(=O)OCn1ccc2c[c]([Au-][P+](c3ccccc3-c3ccccc3)(C3CCCCC3)C3CCCCC3)ccc21` [Compound 6, 5-{[1,1′-biphenyl]-2-yldicyclohexylphosphine aurate(I)}-(1H-indol-1-yl)methyl pivalate], the “enhancement of the cell killing effects of IR” value [1] was “do not enhance the cell killing effects of IR”, the IC50 [2] was 1800 nM and the IC50 [3] was 960 nM. The IC50 [4] was 660 nM and the IC50 [5] was 420 nM.

`CC(C)(C)OC(=O)n1ccc2c[c]([Au-][P+](c3ccccc3-c3ccccc3)(C3CCCCC3)C3CCCCC3)ccc21` [Compound 5, 5-{[1,1′-biphenyl]-2-yldicyclohexylphosphine aurate(I)}-tert-butyl H-indole-1-carboxylate] showed an IC50 [2] of 3400 nM, an IC50 [3] of 2300 nM and an IC50 [4] of 2400 nM. For the same compound, the IC50 [5] was 2100 nM.

`[Au+].[Br-].c1ccc(P(c2ccccc2)c2ccccc2)cc1` [BrAuPPh3, reference compound] was tested, and the “reactivity with BSA (relative thiol content, -SH titer)” value [6] was “facile interactions”, the “anti-cancer (cytostatic or cytotoxic) effects” value ([4]; up to the highest concentration of 100 μM) was “does not produce significant cytostatic or cytotoxic effects” and the “mechanism of cell death (propidium iodide uptake)” value ([5]; CEM-C7 cells) was “causes necrosis”. It also gave an LD50 ([5]; cytotoxic effect, leukemia cell line CEM-C7) of 0.22 ± 0.05 µM.
